From patent US6096711A, “Hsp72 induction and applications” (priority 1998, dated 2000)
Non-standard residues stand in square brackets, D forms with d. Residues, ends and D or L forms follow the SMILES beside them. *: point of attachment. Nle = CCCC[C@H](N)C(=O)O; Cbz = O=C(OCc1ccccc1)*

Experiments:
[1] = system: U937 human lymphoid tumor cells; assay: Apoptosis / cell death of U937 cells; type: cell-based; design: induction of apoptosis by the compound itself: dose or concentration left out as unconfirmed
Protocol: (§1) U937 human lymphoid tumor cells were grown in RPMI-1640 medium with 10% fetal bovine serum and were used for experiments while in the mid log-phase (3-7.105 cells/ml). 293 human cells were grown in DMEM medium with 10% fetal bovine serum and were used in transient transfection experiments while at 40% of confluence. MG132 was purchased from Biomol Res Lab, Inc, PA. aLLN was purchased from Sigma, MO. MG132 analogs were synthesized and purified by HPLC. Anti-hsp72 antibody (SPA810) was from StressGene Biotechnologies Corp (Canada), anti-p53 antibody (PAb1801) was from SantaCruz Biotechnology, Inc, Calif.
PARP degradation was followed by Western blotting with anti-PARP monoclonal antibodies (C2-10, G. Poirier, Montreal, Canada). Apoptosis of 293 cells was detected by cleavage of a truncated form of Ul-70 kDa protein d12 (Romac, J. M. J. et al., Mol Cell Biol 14: 4662-4670 (1994)). Cells were transfected by calcium phosphate method with a plasmid encoding d12 tagged with T7 epitope alone or together with a dominant-negative mutant forms of SEK1 (K/R) or c-jun (TAM67). After 48 hours cells were either treated with […] MG132 or subjected to heat shock at 45° C. for 15 min. After additional 24 hours cells were lysed and cleavage of d12 was detected by Western blot with anti-T7 epitope antibody.

[2] = system: Hsp40; assay: Hsp40 induction in U937 cells; type: cell-based, human; details: incubation of U937 cells with MG132
Protocol: as §1

[3] = system: Hsp72; assay: Hsp72 induction in U937 cells; type: cell-based, human; design: accumulation of Hsp72: dose or concentration left out as unconfirmed; details: for levels of Hsp72: incubation of U937 cells with the compound
Protocol: as §1

[4] = system: JNK; assay: JNK activation by heat shock in IMR90 cells pretreated with MG132; type: cell-based, Human
Protocol: (§2) Young and old cells were incubated with either […] of MG132 for 5 hours, washed with PBS and incubated in a fresh medium for an additional 12 hours.
JNK activity was assayed using GST-c-Jun protein as a substrate after immunoprecipitation with anti-JNK1 antibodies (sc-474, Santa Cruz Biotechnology, Inc., CA). Briefly, cells were lysed in a buffer containing 20 mm Tris-HCl, pH 7.4, 50 mm NaCl, 2 mm EDTA, 1% Triton X-100, 25 mm b-glycerophosphate, 10 mm NaF, 1 mm Na3VO4, and protease inhibitors (1 mm PMSF and 25 mg/ml each of aprotenin, pepstatin, leupeptin). After immunoprecipitation with anti-JNK1 antibody and protein A-sepharose for 2 h at 4° C. and washing, kinase reaction was carried out in a buffer containing 25 mm HEPES, 10 mm MgCl2, 2 mm DTT, 25 mm b-glycerophosphate, 2 mm Na3VO4 and 25 mCi 32P-g-ATP at 37° C. for 10 min. Then the samples were subjected to SDS-PAGE followed by transfer to a nitrocellulose membrane and autoradiography. This membrane was later used for immunoblot with anti-JNK1 antibody to ensure that equal amounts of the kinase were immunoprecipitated.

[5] = system: Hsp27; assay: Hsp27 induction in U937 cells; type: cell-based, human; details: incubation of U937 cells with MG132
Protocol: as §1

[6] = system: JNK; assay: JNK assay in U937 cells; type: cell-based, human; design: JNK activation by the compound itself: dose or concentration left out as unconfirmed
Protocol: as §1
JNK activity was assayed using GST-c-Jun protein as a substrate after immunoprecipitation with anti-JNK1 antibodies (sc-474, Santa Cruz Biotechnology, Inc., Calif.), or anti-HA antibody for transfected JNK (Berkley Antibody Company). Briefly, cells were lysed in a buffer containing 20 mM Tris-HCl, pH 7.4, 50 mM NaCl, 2 mM EDTA, 1% Triton X-100, 25 mM b-glycerophosphate, 10 mM NaF, 1 mM Na3VO4, and protease inhibitors (1 mM PMSF and 25 mg/ml each of aprotenin, pepstatin, leupeptin). After immunoprecipitation with anti-JNK1 or anti-HA antibody and protein A-sepharose for 2 h at 4° C. and washing, kinase reaction was carried out in a buffer containing 25 mM HEPES, 10 mM MgCl2, 2 mM DTT, 25 mM b-glycerophosphate, 2 mM Na3 VO4 and 25 mCi 32P-g-ATP at 37° C. for 10 min. Samples were then subjected to SDS-PAGE followed by transfer to a nitrocellulose membrane and autoradiography. This membrane was later used for immunoblot with anti-JNK1 antibody to ensure that equal amounts of the kinase were immunoprecipitated. p38 kinase activity was determined by Western blot with polyclonal antibody (New England Biolabs, MA) specifically recognizing the phosphorylated (active) form of p38. Later the same blot was treated with anti-p38 antibody (New England Biolabs, Mass.) to assure equal loading of the kinase on different lanes.

[7] = system: Hsp72; assay: Hsp72 induction in young and old IMR90 cells; type: cell-based, Human; details: compared with mild heat shock of young cells
Protocol: Human lung fibroblasts IMR90 which underwent either 12-17 divisions ("young" cells) or 62-67 divisions ("old" cells) were grown in MEM medium supplemented with 20% bovine fetal serum and 2mM glutamine. The cells were seeded at a density of 1.105 cells/35 mm plate and grown at 37° C. in an atmosphere of 95% air and 5% CO2. Cultures were split when cell density reached confluency. MG132 was purchased from Biomol Res Lab, Inc, PA. Anti-Hsp72 antibody (SPA810) was from StressGene Biotechnologies Corp (Canada).
as §2

[8] = system: Human lung fibroblasts IMR90; assay: Heat-induced apoptosis in IMR90 cells; type: cell-based; details: young and old IMR90 cells pretreated with MG132
Protocol: as §2
Young and old cells were subjected to heat shock at 45° C. for different time periods followed by incubation at 37° C. After 24 hours cells were stained with Hoechst 33342 according to manufacturer's specifications.

[9] = system: chymotrypsin-like activity of the proteasome; details: cited from earlier work; for Ki: slow binding inhibitors, Vinitsky et al.

CC(C)C[C@@H](C=O)NC(=O)[C@H](CC(C)C)NC(=O)[C@H](CC(C)C)NC(=O)OCc1ccccc1 [MG132] (Cbz-Leu-Leu-Leu-aldehyde)
induction of apoptosis by the compound itself ([1]; followed by withdrawal): insufficient to induce apoptosis
effect of long incubation on JNK and apoptosis ([1]; long incubation of U937 cells): prolonged activation of JNK leading to apoptosis
TNF-induced apoptosis ([1]; pretreatment with MG132): did not rescue cells from TNF-induced apoptosis and even potentiated it
cell death caused by ethanol ([1]; pretreatment with MG132): suppressed cell death caused by ethanol
extent of cell death after heat shock ([1]; pretreatment with MG132, about 40% without pretreatment): negligible level
induction of Hsp40 [2]: appeared to be induced
accumulation of Hsp72 ([3]; after several hours of recovery): strong accumulation of Hsp72
levels of Hsp72 [3]: dramatically increase
JNK activation by heat shock of various severity [4]: strongly suppressed in both young and old cells
induction of Hsp27 [5]: appeared to be induced
JNK activation by the compound itself ([6]; followed by withdrawal): activated JNK only temporally
JNK activation by severe heat shock ([6]; pretreated versus untreated U937 cells): much lesser activation
activation of JNK by TNF ([6]; pretreatment with MG132): strongly suppressed
activation of JNK by ethanol ([6]; pretreatment with MG132): strongly suppressed
Hsp72 levels induced [7]: exceeded those triggered in young cells by a mild heat shock
protection from heat-induced apoptosis [8]: protected from apoptosis

CC(C)CC(C=CS(C)(=O)=O)NC(=O)C(CC(C)C)NC(=O)C(CC(C)C)NC(=O)Cc1cc(I)c(O)c([N+](=O)[O-])c1 (centres unmarked) [NIP-L3VS]
levels of Hsp72 [3]: dramatically increase

CC(C)C[C@@H](C=O)NC(=O)CNC(=O)CNC(=O)OCc1ccccc1 [Z-Gly-Gly-Leu-H] (Cbz-Gly-Gly-Leu-aldehyde)
inhibition of the chymotrypsin-like activity of the proteasome ([9]; Orlowski 1990): inhibits the chymotrypsin-like activity of the proteasome

CC(C)C[C@H](NC(=O)OCc1ccccc1)C(=O)N[C@@H](CC(C)C)C(=O)N[C@H](C=O)Cc1ccccc1 [Z-LLF-H, (benzyloxycarbonyl)-Leu-Leu-phenylalaninal] (Cbz-Leu-Leu-Phe-aldehyde)
Ki [9]: 0.46 µM

CC(C)C[C@H](NC(=O)[C@H](CC(C)C)NC(=O)[C@H](CC(C)C)NC(=O)OCc1ccccc1)C(N)=O [Z-LLL-amide] (Cbz-Leu-Leu-Leu-NH2)
levels of Hsp72 [3]: did not lead to any significant induction

CCOC(=O)C(=O)[C@H](Cc1ccccc1)NC(=O)[C@H](CC(C)C)NC(=O)[C@H](CC(C)C)NC(=O)OCc1ccccc1 [Z-Leu-Leu-Phe-COOEt]
Ki [9]: 53 µM

CCCC[C@@H](C=O)NC(=O)[C@H](CC(C)C)NC(=O)[C@H](CC(C)C)NC(C)=O [aLLN] (Ac-Leu-Leu-[Nle]-aldehyde)
levels of Hsp72 [3]: dramatically increase

CC(C)[C@H](O)[C@@]12NC(=O)[C@H](C)[C@@H]1OC2=O [lactacystin-β-lacton]
levels of Hsp72 [3]: dramatically increase
